Reference: US10918746B2, “Radioactive compositions and methods for their therapeutic use” (IsoTherapeutics Group LLC, priority 2011, dated 2021)
One block for each compound: values may come before it.

Tests used:
[1] = Biolocalization two hours after delivery into a drilled hole in the femur; format: in vivo, Sprague Dawley rat; details: rat femur
Procedure: Ho-166 in 0.1M HCl was obtained from MURR. The pH was measured with pH paper showing a pH of about 1. A miniature drill was used to create a hole in the femur of an anesthetized Sprague Dawley rat. A miniature pump was used to deliver 3 μL of Ho-166 solution into the hole created by the drill. Two hours after the injection of the dose the rat was sacrificed and dissected. The amount of activity found in the site of injection was 5% of the injected dose. 52% of the dose was found in the liver and 23% of the dose was found in the rest of the bone.
A miniature drill was used to create a hole in the femur of an anesthetized Sprague Dawley rat. A miniature pump was used to deliver 2 μL of Sm-153-DOTMP solution into the hole created by the drill. Two hours after the injection of the dose the rat was sacrificed and dissected. The amount of activity found in the site of injection was 9% of the injected dose and about 20% was found in the rest of the bone. An average of 65% of the injected dose was found in the urine.

[2] = Biolocalization after injection into synovial cavity of right hind knee; format: in vivo, Sprague Dawley rats; details: Rats
Source text: One method of this invention uses a therapeutically-effective quantity of the compositions of Formula (II) and Formula (III), administered in one or more locations into or near a Non-intracavitary, undesirable tissue mass (e.g. cancer) in an animal or human in need of such treatment. Another method of this invention uses a therapeutically-effective quantity of these hydroxy carbonates, administered in one or more locations into or near the synovial cavity to treat arthritis. In either method the treatment is such that a major portion of the dose remains at the site of injection (defined as greater than about 90% of the dose remaining at the site after two half-lives of the radioisotopes; more preferably greater than about 95% of the dose remaining at the site after 2 half-lives of the radioactive isotopes; and most preferably greater than about 98% of the dose remaining at the site after 2 half-lives of the radioisotopes) as determined by biolocalization data obtained by dissection of an animal (e.g. BALB/c mice or Sprague Dawley rats); wherein the values are corrected for radioactive decay. It is also important to recognize that deposition of radioactivity in non-target organs and tissues can impact the safety and efficacy of the treatment. Ideally, in mice, less than about 1% remaining in the carcass (including the contralateral femur) and less than about 0.2% in the liver plus the kidneys and, in rats, less than about 1% in the skeletal structure and less than about 0.2% in the liver plus the kidneys. In the case of mice (injection into the gastrocnemius muscle of the right hind leg is used as a model for Non-Intracavitary tumors), all tissues, including the whole carcass, and bedding were collected such that 100% of the radioactivity was accounted for. In the case of rats (injections were directly into the synovial cavity), the size of the animal precluded counting the entire carcass. Therefore samples of blood, muscle, and bone (contralateral femur) were collected and the total masses of those tissues were calculated. The tissue masses were calculated based on rat body weight using equations fitted to data in the literature [Henry H. Donaldson, The Rat: Reference Tables and Data for the Albino Rat and the Norway Rat, (1915)].
Six male Sprague Dawley rats, under Isoflurane anesthesia, were each injected with 20 μL of the Composition prepared according to the procedure of Example 1 into the synovial cavity of the right hind knee using a ⅓ cc insulin syringe. The dose was deposited into the cavity via needle insertion through the skin. The rats were individually housed in cages with absorbent paper under a wire mesh bottom. […]
Due to the size of the animals, the carcass was not collected and measured as was done for the mice. The % ID in the skeletal structure, muscular structure and blood in the body were calculated from the activity in samples of those tissues (left femur, left thigh, blood) and rat body weight using equations fitted to data in the literature as was described earlier.
Samples were counted for radioactivity on a PerkinElmer Wizard automated NaI well detector. The data, shown below in Table 1, indicate the average percent injected dose in each tissue/sample.

amount of activity found in the site of injection [1]: 9 % of the injected dose | dose found in the rest of the bone ([1]; two hours after injection): about 20% | injected dose found in the urine ([1]; two hours after injection, average): 65 % of the injected dose
SMILES: O=P([O-])(O)CN1CCN(CP(=O)([O-])O)CCN(CP(=O)(O)O)CCN(CP(=O)([O-])O)CC1.[153Sm+3] [Sm-153-DOTMP]

amount of activity found in the site of injection [1]: 5 % of the injected dose | dose found in the liver ([1]; two hours after injection): 52 % of the dose | dose found in the rest of the bone ([1]; two hours after injection): 23%
SMILES: [166Ho+3].[Cl-].[Cl-].[Cl-] [Example G, Ho-166 Chloride]

Average % ID, Calculated Blood ([2]; 14 days): 0.0 % ID | Average % ID, Calculated Muscle ([2]; 14 days): 0.3 % ID | Average % ID, Calculated Skeleton ([2]; 14 days): 28.0 % ID | Average % ID, Heart ([2]; 14 days): 0.0 % ID | Average % ID, Kidney ([2]; 14 days): 0.4 % ID | Average % ID, Leg (injection site) ([2]; 14 days): 31.2 % ID | Average % ID, Lg. Intestine ([2]; 14 days): 0.0 % ID | Average % ID, Liver ([2]; 14 days): 0.4 % ID | Average % ID, Lung ([2]; 14 days): 0.0 % ID | Average % ID, Sm. Intestine ([2]; 14 days): 0.0 % ID | Average % ID, Spleen ([2]; 14 days): 0.0 % ID | Average % ID, Stomach ([2]; 14 days): 0.0 % ID | Average % ID, Urine/Feces ([2]; 14 days): 39.5 % ID | Average % ID, Calculated Blood ([2]; 28 days): 0.0 % ID | Average % ID, Calculated Muscle ([2]; 28 days): 0.1 % ID | Average % ID, Calculated Skeleton ([2]; 28 days): 30.0 % ID | Average % ID, Heart ([2]; 28 days): 0.0 % ID | Average % ID, Kidney ([2]; 28 days): 0.3 % ID | Average % ID, Leg (injection site) ([2]; 28 days): 22.6 % ID | Average % ID, Lg. Intestine ([2]; 28 days): 0.0 % ID | Average % ID, Liver ([2]; 28 days): 0.4 % ID | Average % ID, Lung ([2]; 28 days): 0.0 % ID | Average % ID, Sm. Intestine ([2]; 28 days): 0.0 % ID | Average % ID, Spleen ([2]; 28 days): 0.0 % ID | Average % ID, Stomach ([2]; 28 days): 0.0 % ID | Average % ID, Urine/Feces ([2]; 28 days): 46.6 % ID
SMILES: O=C([O-])CN(CCN(CC(=O)[O-])CC(=O)[O-])CCN(CC(=O)[O-])CC(=O)[O-].[117Sn+4].[H+] [Example K]
